# US20240279236A1, “COMPOUNDS AND METHODS OF TREATING TUBERCULOSIS” (Fimbrion Therapeutics, Inc., priority 2021, published 2024)
# pIC50: −log10 of the molar value.
# System: WT Mtb Erdman strain
# Assay: Microplate Alamar Blue Assay (MABA), Mtb growth inhibition
# Type: cell-based, Mycobacterium tuberculosis
# Details: Mycobacterium tuberculosis, ERDMAN, 168 h, Middlebrook 7H9 media, 7 days at 37° C. in 5% CO2
row,SMILES,pIC50
1,"Cc1cc2c(NCCCc3ccc(-c4cnc(N(C)C)cn4)cc3)nc(-c3ccoc3)nc2s1 [Example 381, 5-[4-(3-([2-(furan-3-yl)-6-methylthieno[2,3-d]pyrimidin-4-yl]amino)propyl)phenyl]-N,N-dimethyl-pyrazin-2-amine]",7.41
2,"Cc1cc2c(NCCCc3ccc(-c4ccc(F)cn4)cc3)nc(-c3ccoc3)nc2s1 [Example 382, N-(3-[4-(5-fluoropyridin-2-yl)phenyl]propyl)-2-(furan-3-yl)-6-methylthieno[2,3-d]pyrimidin-4-amine]",8.10
3,"Cc1cc2c(NCCCc3ccc(-c4cncc(C(F)(F)F)n4)cc3)nc(-c3ccoc3)nc2s1 [Example 383, 2-(furan-3-yl)-6-methyl-N-(3-(4-[6-(trifluoromethyl)pyrazin-2-yl]phenyl)propyl) thieno[2,3-d]pyrimidin-4-amine]",6.64
4,"Cc1cc2c(NCCCc3ccc(-c4ccc(F)nc4)cc3)nc(-c3ccoc3)nc2s1 [Example 384, N-(3-[4-(6-fluoropyridin-3-yl)phenyl]propyl)-2-(furan-3-yl)-6-methylthieno[2,3-d]pyrimidin-4-amine]",8.22
5,"Cc1cc2c(NCCCc3ccc(-c4ccnc(C(F)(F)F)n4)cc3)nc(-c3ccoc3)nc2s1 [Example 385, 2-(furan-3-yl)-6-methyl-N-(3-(4-[2-(trifluoromethyl)pyrimidin-4-yl]phenyl)propyl) thieno[2,3-d]pyrimidin-4-amine]",6.70
6,Cc1cc2c(NCCCc3ccc(-c4cnc(C(F)(F)F)nc4)cc3)nc(-c3ccoc3)nc2s1 [Example 386],6.66
7,"Cc1cc2c(NCCCc3ccc(-c4ccc(C(F)(F)F)cn4)cc3)nc(-c3ccoc3)nc2s1 [Example 387, 2-(furan-3-yl)-6-methyl-N-(3-(4-[5-(trifluoromethyl)pyridin-2-yl]phenyl)propyl) thieno[2,3-d]pyrimidin-4-amine]",8.30
8,"Cc1cc2c(NCCCc3ccc(-c4ccc(OC(F)(F)F)cn4)cc3)nc(-c3ccoc3)nc2s1 [Example 388, 2-(furan-3-yl)-6-methyl-N-(3-(4-[5-(trifluoro-methoxy)pyridin-2-yl]phenyl)propyl)thieno[2,3-d]pyrimidin-4-amine]",8.15
9,"Cc1cc2c(NCCCc3ccc(-c4ccc(C(F)(F)F)nn4)cc3)nc(-c3ccoc3)nc2s1 [Example 389, 2-(furan-3-yl)-6-methyl-N-(3-(4-[6-(trifluoro-methyl)pyridazin-3-yl]phenyl)propyl)thieno[2,3-d]pyrimidin-4-amine]",7.49
10,"Cc1cc2c(NCCCc3ccc(-c4ccnc(O)c4)cc3)nc(-c3ccoc3)nc2s1 [Example 390, 4-[4-(3-([2-(furan-3-yl)-6-methylthieno[2,3-d]pyrimidin-4-yl]amino)propyl)phenyl]pyridin-2-ol]",5.03
11,"Cc1cc2c(NCCCc3ccc(-c4cnccn4)cc3)nc(-c3ccoc3)nc2s1 [Example 391, 2-(furan-3-yl)-6-methyl-N-(3-[4-(pyrazin-2-yl)phenyl]propyl) thieno[2,3-d]pyrimidin-4-amine]",7.21
12,"Cc1cc2c(NCCCc3ccc(-c4cnc(OC(C)C)cn4)cc3)nc(-c3ccoc3)nc2s1 [Example 392, 2-(furan-3-yl)-6-methyl-N-(3-(4-[5-(propan-2-yloxy)pyrazin-2-yl]phenyl)propyl)thieno[2,3-d]pyrimidin-4-amine]",7.36
13,"Cc1cnc(-c2ccc(CCCNc3nc(-c4ccoc4)nc4sc(C)cc34)cc2)cn1 [Example 393, 2-(furan-3-yl)-6-methyl-N-(3-[4-(5-methyl-pyrazin-2-yl)phenyl]propyl) thieno[2,3-d] pyrimidin-4-amine]",7.80
14,"Cc1cc2c(NCCCc3ccc(-c4ncc(C(F)(F)F)cn4)cc3)nc(-c3ccoc3)nc2s1 [Example 394, 2-(furan-3-yl)-6-methyl-N-(3-(4-[5-(trifluoromethyl)pyrimidin-2-yl]phenyl)propyl) thieno[2,3-d] pyrimidin-4-amine]",> 8.40
15,"Cc1cc2c(NCCCc3ccc(-c4cnc(Cl)cn4)cc3)nc(-c3ccoc3)nc2s1 [Example 395, N-(3-[4-(5-chloropyrazin-2-yl)phenyl]propyl)-2-(furan-3-yl)-6-methylthieno[2,3-d]pyrimidin-4-amine]",8.30
16,"Cc1cc2c(NCCCc3ccc(-c4cnc(C#N)cn4)cc3)nc(-c3ccoc3)nc2s1 [Example 396, 5-[4-(3-([2-(furan-3-yl)-6-methylthieno[2,3-d]pyrimidin-4-yl]amino)propyl)phenyl]pyrazine-2-carbonitrile]",> 8.30
17,"Cc1cc2c(NCCCc3ccc(-c4cnc5[nH]ccc5n4)cc3)nc(-c3ccoc3)nc2s1 [Example 397, 2-(furan-3-yl)-6-methyl-N-[3-(4-(5H-pyrrolo[2,3-b]pyrazin-2-yl)phenyl)propyl] thieno[2,3-d] pyrimidin-4-amine]",5.30
18,"Cc1cc2c(NCCCc3ccc(-c4ccc(S(C)(=O)=O)cn4)cc3)nc(-c3ccoc3)nc2s1 [Example 398, 2-(furan-3-yl)-N-(3-[4-(5-methanesulfonyl-pyridin-2-yl)phenyl]propyl)-6-methylthieno [2,3-d]pyrimidin-4-amine]",< 6.34

row,SMILES,pIC50
1,"CSc1cnc(-c2ccc(CCCNc3nc(-c4ccoc4)nc4sc(C)cc34)cc2)cn1 [Example 399, 2-(furan-3-yl)-6-methyl-N-(3-(4-[5-(methylsulfanyl)pyrazin-2-yl]phenyl)propyl) thieno[2,3-d] pyrimidin-4-amine]",< 6.57
2,"Cc1cc2c(NCCCc3ccc(-c4ccc(N(C)C)nn4)cc3)nc(-c3ccoc3)nc2s1 [Example 400, 6-[4-(3-([2-(furan-3-yl)-6-methylthieno [2,3-d]pyrimidin-4-yl]amino)propyl)phenyl]-N,N-dimethylpyridazin-3-amine]",< 6.30
3,"Cc1cc2c(NCCCc3ccc(-c4cnc(C(=O)N(C)C)cn4)cc3)nc(-c3ccoc3)nc2s1 [Example 401, 5-[4-(3-([2-(furan-3-yl)-6-methylthieno[2,3-d]pyrimidin-4-yl]amino)propyl)phenyl]-N,N-dimethylpyrazine-2-carboxamide]",5.66
4,"Cc1cc2c(NCCCc3ccc(-c4ncc(F)cn4)cc3)nc(-c3ccoc3)nc2s1 [Example 402, N-(3-[4-(5-fluoropyrimidin-2-yl)phenyl]propyl)-2-(furan-3-yl)-6-methylthieno[2,3-d]pyrimidin-4-amine]",8.10
5,"Cc1cc2c(NCCCc3ccc(-c4cnc(CO)cn4)cc3)nc(-c3ccoc3)nc2s1 [Example 403, (5-[4-(3-([2-(furan-3-yl)-6-methylthieno[2,3-d]pyrimidin-4-yl]amino)propyl)phenyl]pyrazin-2-yl)methanol]",7.15
6,"CCc1nc(NCCCc2ccc(N3CCOCC3)cc2)c2cc(C)sc2n1 [Example 420, 2-ethyl-6-methyl-N-(3-(4-morpholinophenyl)propyl)thieno[2,3-d]pyrimidin-4-amine]",6.80
7,"CCc1nc(NCCCc2ccc(N3CCCCC3)cc2)c2cc(C)sc2n1 [Example 421, 2-ethyl-6-methyl-N-(3-(4-(piperidin-1-yl)phenyl)propyl) thieno[2,3-d]pyrimidin-4-amine]",6.77
8,"Cc1cc2c(NCCCc3ccc(N4CCOCC4)cc3)nc(C(F)(F)F)nc2s1 [Example 422, 6-methyl-N-(3-(4-morpholinophenyl)propyl)-2-(trifluoromethyl) thieno[2,3-d]pyrimidin-4-amine]",5.68
9,"CSc1nc(NCCCc2ccc(-c3cnc(F)cn3)cc2)c2nc(C)sc2n1 [Example 424, N-(3-[4-(5-fluoropyrazin-2-yl)phenyl]propyl)-2-methyl-5-(methylsulfanyl)-[1,3]thiazolo[5,4-d]pyrimidin-7-amine]",7.39
10,"CSc1nc(NCCCc2ccc(-c3ccc(Cl)cc3)cc2)c2cc(C)sc2n1 [Example 425, N-(3-(4′-chloro-[1,1′-biphenyl]-4-yl)propyl)-6-methyl-2-(methylthio)thieno[2,3-d]pyrimidin-4-amine]",7.77
11,"Cc1cc2c(NCCCc3ccc(-c4ccc(OC(F)(F)F)cc4)cc3)nc(-c3ccncn3)nc2s1 [Example 426, 6-methyl-2-(pyrimidin-4-yl)-N-(3-(4′-(trifluoromethoxy)-[1,1′-biphenyl]-4-yl)propyl)thieno[2,3-d]pyrimidin-4-amine]",7.12
12,"Cc1cc2c(NCCCc3ccc(-c4ccc(C#N)cc4)cc3)nc(-c3ccoc3)nc2s1 [Example 427, 4′-(3-((2-(furan-3-yl)-6-methylthieno[2,3-d]pyrimidin-4-yl)amino)propyl)-[1,1′-biphenyl]-4-carbonitrile]",7.80
13,"Cc1cc2c(NCCCc3ccc(-c4ccc(C(F)(F)F)nc4)cc3)nc(-c3ccoc3)nc2s1 [Example 428, 2-(furan-3-yl)-6-methyl-N-(3-(4-(6-(trifluoromethyl)pyridin-3-yl)phenyl)propyl)thieno[2,3-d]pyrimidin-4-amine]",7.70
14,"Cc1cc2c(NCCCc3ccc(-c4ccc(C5CC5)cc4)cc3)nc(-c3ccoc3)nc2s1 [Example 429, N-(3-(4′-cyclopropyl-[1,1′-biphenyl]-4-yl)propyl)-2-(furan-3-yl)-6-methylthieno[2,3-d]pyrimidin-4-amine]",7.70
15,"CSc1nc(NCCCc2ccc(-c3ccc(C4CC4)cc3)cc2)c2cc(C)sc2n1 [Example 430, N-(3-(4′-cyclopropyl-[1,1′-biphenyl]-4-yl)propyl)-6-methyl-2-(methylthio)thieno[2,3-d]pyrimidin-4-amine]",7.74
16,"CSc1nc(NCCCc2ccc(-c3ccc(C(F)(F)F)nc3)cc2)c2cc(C)sc2n1 [Example 431, 6-methyl-2-(methylthio)-N-(3-(4-(6-(trifluoromethyl)pyridin-3-yl)phenyl)propyl)thieno[2,3-d]pyrimidin-4-amine]",7.70
17,"CSc1nc(NCCCc2ccc(-c3ccc(C#N)cc3)cc2)c2cc(C)sc2n1 [Example 432, 4′-(3-((6-methyl-2-(methylthio)thieno[2,3-d]pyrimidin-4-yl)amino)propyl)-[1,1′-biphenyl]-4-carbonitrile]",7.85
18,"Cc1cc2c(NCCCc3ccc(-c4ccc(OC(F)(F)F)cc4)cc3)nc(Cl)nc2s1 [Example 433, 2-chloro-6-methyl-N-(3-(4′-(trifluoromethoxy)-[1,1′-biphenyl]-4-yl)propyl)thieno[2,3-d]pyrimidin-4-amine]",7.27
